Laboratory results published in ChEMBL document CHEMBL5154747, “Discovery of new carbonic anhydrase IX inhibitors as anticancer agents by toning the hydrophobic and hydrophilic rims of the active site to encounter the dual-tail approach” (Eur J Med Chem, 2022).

Tested on: RXF 393
Experiment: Anticancer activity against human RXF 393 cells assessed as cell growth inhibition at 10 uM incubated for 48 hrs by SRB assay relative to control
Format: functional
Conditions: read-out: GI

Row | Compound | inhibition of growth at 10 µM
1 | COc1ccc(/C=N/Nc2nc(Nc3ccccc3)nc(Nc3ccc(S(N)(=O)=O)cc3)n2)cc1 | 77%

Tested on: HCT-116
Experiment: Anticancer activity against human HCT-116 cells assessed as cell growth inhibition at 10 uM incubated for 48 hrs by SRB assay relative to control
Format: functional
Conditions: read-out: GI

Row | Compound | inhibition of growth at 10 µM
2 | COc1ccc(/C=N/Nc2nc(Nc3ccccc3)nc(Nc3ccc(S(N)(=O)=O)cc3)n2)cc1 | 49%

Tested on: SK-MEL-5
Experiment: Anticancer activity against human SK-MEL-5 cells assessed as cell growth inhibition at 10 uM incubated for 48 hrs by SRB assay relative to control
Format: functional
Conditions: read-out: GI

Row | Compound | inhibition of growth at 10 µM
3 | COc1ccc(/C=N/Nc2nc(Nc3ccccc3)nc(Nc3ccc(S(N)(=O)=O)cc3)n2)cc1 | 25%

Tested on: UO-31
Experiment: Anticancer activity against human UO-31 cells assessed as cell growth inhibition at 10 uM incubated for 48 hrs by SRB assay relative to control
Format: functional
Conditions: read-out: GI

Row | Compound | inhibition of growth at 10 µM
4 | COc1ccc(/C=N/Nc2nc(Nc3ccccc3)nc(Nc3ccc(S(N)(=O)=O)cc3)n2)cc1 | 22%

Tested on: OVCAR-5
Experiment: Anticancer activity against human OVCAR-5 cells assessed as cell growth inhibition at 10 uM incubated for 48 hrs by SRB assay relative to control
Format: functional
Conditions: read-out: GI

Row | Compound | inhibition of growth at 10 µM
5 | COc1ccc(/C=N/Nc2nc(Nc3ccccc3)nc(Nc3ccc(S(N)(=O)=O)cc3)n2)cc1 | 14%

Tested on: COLO 205
Experiment: Anticancer activity against human COLO 205 cells assessed as cell growth inhibition at 10 uM incubated for 48 hrs by SRB assay relative to control
Format: functional
Conditions: read-out: GI

Row | Compound | inhibition of growth at 10 µM
6 | COc1ccc(/C=N/Nc2nc(Nc3ccccc3)nc(Nc3ccc(S(N)(=O)=O)cc3)n2)cc1 | 23%

Tested on: SK-MEL-28
Experiment: Anticancer activity against human SK-MEL-28 cells assessed as cell growth inhibition at 10 uM incubated for 48 hrs by SRB assay relative to control
Format: functional
Conditions: read-out: GI

Row | Compound | inhibition of growth at 10 µM
7 | COc1ccc(/C=N/Nc2nc(Nc3ccccc3)nc(Nc3ccc(S(N)(=O)=O)cc3)n2)cc1 | 21%

Tested on: OVCAR-3
Experiment: Anticancer activity against human OVCAR-3 cells assessed as cell growth inhibition at 10 uM incubated for 48 hrs by SRB assay relative to control
Format: functional
Conditions: read-out: GI

Row | Compound | inhibition of growth at 10 µM
8 | COc1ccc(/C=N/Nc2nc(Nc3ccccc3)nc(Nc3ccc(S(N)(=O)=O)cc3)n2)cc1 | 38%

Tested on: HOP-92
Experiment: Anticancer activity against human HOP-92 cells assessed as cell growth inhibition at 10 uM incubated for 48 hrs by SRB assay relative to control
Format: functional
Conditions: read-out: GI

Row | Compound | inhibition of growth at 10 µM
9 | COc1ccc(/C=N/Nc2nc(Nc3ccccc3)nc(Nc3ccc(S(N)(=O)=O)cc3)n2)cc1 | < 10%

Target: Carbonic anhydrase 9 (Homo sapiens, UniProt Q16790)
Experiment: Inhibition of recombinant human CA 9 preincubated for 15 mins by phenol red dye based stopped flow CO2 hydration assay
Conditions: not given

Row | Compound | Ki
10 | COc1ccc(/C=N/Nc2nc(Nc3ccccc3)nc(Nc3ccc(S(N)(=O)=O)cc3)n2)cc1 | 99.4 nM

Tested on: CCRF-CEM
Experiment: Anticancer activity against human CCRF-CEM cells assessed as cell growth inhibition at 10 uM incubated for 48 hrs by SRB assay relative to control
Format: functional
Conditions: read-out: GI

Row | Compound | inhibition of growth at 10 µM
11 | COc1ccc(/C=N/Nc2nc(Nc3ccccc3)nc(Nc3ccc(S(N)(=O)=O)cc3)n2)cc1 | 54%

Tested on: HCC 2998
Experiment: Anticancer activity against human HCC 2998 cells assessed as cell growth inhibition at 10 uM incubated for 48 hrs by SRB assay relative to control
Format: functional
Conditions: read-out: GI

Row | Compound | inhibition of growth at 10 µM
12 | COc1ccc(/C=N/Nc2nc(Nc3ccccc3)nc(Nc3ccc(S(N)(=O)=O)cc3)n2)cc1 | 12%

Tested on: NCI-H460
Experiment: Anticancer activity against human NCI-H460 cells assessed as cell growth inhibition at 10 uM incubated for 48 hrs by SRB assay relative to control
Format: functional
Conditions: read-out: GI

Row | Compound | inhibition of growth at 10 µM
13 | COc1ccc(/C=N/Nc2nc(Nc3ccccc3)nc(Nc3ccc(S(N)(=O)=O)cc3)n2)cc1 | 44%

Tested on: U-251
Experiment: Anticancer activity against human U-251 cells assessed as cell growth inhibition at 10 uM incubated for 48 hrs by SRB assay relative to control
Format: functional
Conditions: read-out: GI

Row | Compound | inhibition of growth at 10 µM
14 | COc1ccc(/C=N/Nc2nc(Nc3ccccc3)nc(Nc3ccc(S(N)(=O)=O)cc3)n2)cc1 | 33%

Tested on: SNB-19
Experiment: Anticancer activity against human SNB-19 cells assessed as cell growth inhibition at 10 uM incubated for 48 hrs by SRB assay relative to control
Format: functional
Conditions: read-out: GI

Row | Compound | inhibition of growth at 10 µM
15 | COc1ccc(/C=N/Nc2nc(Nc3ccccc3)nc(Nc3ccc(S(N)(=O)=O)cc3)n2)cc1 | 13%

Tested on: IGROV-1
Experiment: Anticancer activity against human IGROV-1 cells assessed as cell growth inhibition at 10 uM incubated for 48 hrs by SRB assay relative to control
Format: functional
Conditions: read-out: GI

Row | Compound | inhibition of growth at 10 µM
16 | COc1ccc(/C=N/Nc2nc(Nc3ccccc3)nc(Nc3ccc(S(N)(=O)=O)cc3)n2)cc1 | 41%

Tested on: SW-620
Experiment: Anticancer activity against human SW-620 cells assessed as cell growth inhibition at 10 uM incubated for 48 hrs by SRB assay relative to control
Format: functional
Conditions: read-out: GI

Row | Compound | inhibition of growth at 10 µM
17 | COc1ccc(/C=N/Nc2nc(Nc3ccccc3)nc(Nc3ccc(S(N)(=O)=O)cc3)n2)cc1 | 27%

Tested on: CAKI-1
Experiment: Anticancer activity against human CAKI-1 cells assessed as cell growth inhibition at 10 uM incubated for 48 hrs by SRB assay relative to control
Format: functional
Conditions: read-out: GI

Row | Compound | inhibition of growth at 10 µM
18 | COc1ccc(/C=N/Nc2nc(Nc3ccccc3)nc(Nc3ccc(S(N)(=O)=O)cc3)n2)cc1 | 24%

Tested on: MDA-MB-468
Experiment: Anticancer activity against human MDA-MB-468 cells assessed as cell growth inhibition at 10 uM incubated for 48 hrs by SRB assay relative to control
Format: functional
Conditions: read-out: GI

Row | Compound | inhibition of growth at 10 µM
19 | COc1ccc(/C=N/Nc2nc(Nc3ccccc3)nc(Nc3ccc(S(N)(=O)=O)cc3)n2)cc1 | 23%

Tested on: HT-29
Experiment: Anticancer activity against human HT-29 cells assessed as cell growth inhibition at 10 uM incubated for 48 hrs by SRB assay relative to control
Format: functional
Conditions: read-out: GI

Row | Compound | inhibition of growth at 10 µM
20 | COc1ccc(/C=N/Nc2nc(Nc3ccccc3)nc(Nc3ccc(S(N)(=O)=O)cc3)n2)cc1 | 44%
